Laboratory results as given in patent publication US9211305B2, “Pharmaceutical compositions with glycosaminoglycans and use thereof in the treatment of chronic ulcers” (LABORATORIOS FARMACEUTICOS ROVI S.A., priority 2008, dated 2015).
“And” between values parts separate entries of the source, which are not always exact repeats. Equal entries are not always repeated. Marks after values point to notes of the source that are not given here.

Tests used:
[1] = system: diabetic wistar rat; test: Example 2: ulcer area reduction in streptozocin-diabetized rats, subcutaneous route; format: in vivo; details: for percentage of area reduction of day 9 with respect to day 1: single ulcers
Experimental: To perform the present embodiment, doses of 45 mg/kg of streptozocin (STZ) were administered by intramuscular route to make a batch of 8 rats diabetic (Andrades Ja et al. Engineering, expression, and renaturation of a collagen-targeted human bFGF fusion protein. Growth Factors. 2001; 18(4):261-75).
Male wistar rats with a average weight of 250 g per rat were used, to which a dose of 11.25 mg STZ per rat was administered by means of the intramuscular administration of 100 μL in the left paw of each rat.
Sweetened water (350 mg/dL) was administered to all the rats for three days and glucose measurements were performed with a glucometer every day to verify that the rats were indeed diabetized. For this reason, before the administration and at time 4 days after the administration of streptozocin, a drop of blood was extracted from the rat tail vein for the subsequent quantification of glycemia and see whether they were diabetic before starting the ulceration assay.
Once the rats were diabetized, 2 ulcers with a diameter of 1 cm each were made on them using a scalpel. An anesthesia/analgesia protocol with ketamine/xylazine was followed according to the recommendations of the book: “Handbook of laboratory animal management and welfare”:
The ulcers were treated with water and cleaned for 9 days after the ulceration.
The administrations of bemiparin and of fondaparinux were performed by means of a bemiparin solution by subcutaneous route (100 μL) for the treatment of the ulcers.
The diameter of the ulcer was quantified by means of tracing the ulcer onto a transparency to see the progress of the healing.

[2] = system: Non-Diabetized Rats; test: Wound healing by oral route in non-diabetized rats; format: in vivo, Wistar rat; details: for histopathological Grade / histopathological Score: sacrifice day 15, fondaparinux 10 mg/kg, bemiparin 100 mg/kg
Experimental: (§1) Both treatments were administered by oral route at an administration volume of 10 mL/kg. In the case of fondaparinux, a dose of 10 mg/kg was administered and in the case of bemiparin, 100 mg/kg were administered.
(§2) The control group only received the carrier used to prepare the assay product. The carrier for the preparation of the assay product is a 1.5% (w/v) bicarbonate solution in water for injections. It was verified that the pH of the formulations prepared was above 8.00.
(§3) The animals were anesthetized (ketamine+xylazine, 90+10 mg/kg, i.m.). Their back was shaved and cleaned with disinfectant (povidone-iodine) and the area where the wound would be made was marked by means of a template to homogenize its position in all the animals.
(§4) The wound was made by means of a circular incision with a diameter of approximately 1.5 cm, the skin of the mid-dorsal area being removed. 1 mL/animal of physiological serum was administered by i.p. route after the intervention. […]. Analgesia (paracetamol, 1 mg/mL) was provided in drinking water for the 7 days after the intervention.
(§5) On the day after making the wound and for a total of 14 days, the assigned treatments were administered to the animals. The follow-up of the animals was performed, the evolution of the wounds being macroscopically assessed twice a week, by means of digital photography of the wound. The body weight of the animals was also recorded twice a week.
(§6) On the day after the last administration, the animals were sacrificed with anesthesia overdose (pentobarbital sodium). The area where the wound was made was extracted. The front half was frozen in liquid nitrogen and stored in a freezer (−80±5° C.) and the rear half was stored in formol for its subsequent histological processing.
(§7) The wound area was calculated as the percentage of reduction thereof to evaluate the degree of curing thereof, by means of the standardized formula: […]
On the following day and for a total of 14 days, 10 mg/kg were administered to the animals by oral route.
(§8) The follow-up of the animals was performed, the evolution of the wounds being macroscopically assessed twice a week, by means of digital photography of the wound. The body weight of the animals was also recorded twice a week.
(§9) The animals were sacrificed on day 15 of the study and the area of the skin where the wound was caused was stored in formol to perform a histopathological evaluation (hematoxylin-eosin staining).
Each section was given a histological score was given in the grade I to grade V range, where I means uncured wound and V means completely epithelialized wound. The score is based on the degree of cell invasion, the formation of granulation tissue, vascularization and epithelialization.

[3] = system: diabetic rat wound model; test: Wound healing by oral route in diabetic rat; format: in vivo, Wistar rat; details: 14 days; for histopathological Grade / histopathological Score: oral, sacrifice day 15, fondaparinux 10 mg/kg, bemiparin 100 mg/kg
Experimental: as §1, §2
At the beginning of the assay, diabetes mellitus was induced in all the animals. To that end, they received a single intraperitoneal injection of streptozotocin (60 mg/kg, 10 mL/kg). After 72 hours, the establishment of the diabetes was verified by analyzing the blood glucose levels. To that end, animals were anesthetized with isoflurane and 0.8 mL of blood were extracted from the retroorbicular plexus. The animals had to have values of glucose greater than 15 mmol/L. A week after the induction of the diabetes, the wound was made.
as §3, §4, §5, §6, §7
On the following day and for a total of 14 days, 10 mL/kg were administered to the animals by oral route.
as §8, §9
Each section was given a histological score in the grade I to grade V range, where I means uncured wound and V means completely epithelialized wound. The score is based on the degree of cell invasion, the formation of granulation tissue, […]

[4] = system: C57BL/KsJ-db/db diabetic mouse; test: Example 4: wound healing in genetically diabetic mouse, subcutaneous route; format: in vivo; details: for histopathological Grade / histopathological Score: sacrifice day 21, doses as in the 18th table
Experimental: The genetically diabetic mouse develops resistance to insulin and hyperglycemia similar to those observed in adult diabetes. The total thickness wounds made in the back of these animals takes longer in forming the granulation tissue and in closing than the same wounds caused in non-diabetic animals.
On the first day of the assay, the animals were anesthetized (ketamine+xylazine, 100+10 mg/kg, i.m.). The back of the animal was shaved, the area was cleaned with disinfectant and the location of the wound was marked by means of a template to make its position the same in all the animals.
The wound was made by means of a circular incision with a diameter of approximately 1.5 cm, the skin of the mid-dorsal area being removed. A semipermeable dressing was subsequently placed on the wound. 1 mL/animal of physiological serum was administered by i.p. route after the intervention.
as §7
The measurement performed immediately after the intervention or incision was used as the baseline area. On the following day and for a total of 14 days, the assigned treatments were administered to the animals.
On the following day and for a total of 14 days, 10 mL/kg were administered to the animals by subcutaneous route in the back of the animal, avoiding the area of the wound.
The follow-up of the animals was performed up to a period of 21 days (average time necessary for the healing of the wounds in this animal model). The assessment was performed by means of digital photography of the wound and subsequent image analysis.
The animals were sacrificed on day 21 of the study and the area of the skin where the wound was caused was stored in formol to perform a histopathological evaluation (hematoxylin-eosin staining).
Each section was given a histological score in the grade 1 to grade V range, where I means uncured wound and V means completely epithelialized wound. The score is based on the degree of cell invasion, the formation of granulation tissue, vascularization and epithelialization.

[5] = Fondaparinux rats, Batch 3, 0.22 mg per rat, subcutaneous
[6] = day 21, subcutaneous 14 days, fondaparinux 1 mg/kg, bemiparin 1000 IU Xa/kg
[7] = 108 IU rats, Batch 2, subcutaneous
[8] = 217 IU rats, Batch 1, subcutaneous

## CO[C@H]1O[C@H](COS(=O)(=O)O)[C@@H](O[C@@H]2O[C@@H](C(=O)O)[C@@H](O[C@H]3O[C@H](COS(=O)(=O)O)[C@@H](O[C@@H]4O[C@H](C(=O)O)[C@@H](O[C@H]5O[C@H](COS(=O)(=O)O)[C@@H](O)[C@H](O)[C@H]5NS(=O)(=O)O)[C@H](O)[C@H]4O)[C@H](OS(=O)(=O)O)[C@H]3NS(=O)(=O)O)[C@H](O)[C@H]2OS(=O)(=O)O)[C@H](O)[C@H]1NS(=O)(=O)O [Fondaparinux]
[1]; [5]
  percentage of area reduction of day 9 with respect to day 1, Average: 20.70%
  percentage of area reduction of day 9 with respect to day 1: 17.00%* and 20.69% and 21.32% and 23.81%
[2]; oral, 14 days
  histopathological Grade: III (7-9 Moderately thick granulation tissue. It can vary from being dominated by inflammatory cells to greater presence of fibroblasts and collagen deposition, extensive neovascularization, minimum to moderate epithelial migration.)
  histopathological Score: 9.5
[3]
  histopathological Grade: III (7-9 Moderately thick granulation tissue. It can vary from being dominated by inflammatory cells to greater presence of fibroblasts and collagen deposition, extensive neovascularization, minimum to moderate epithelial migration.)
  histopathological Score: 9.5
[4]; [6]
  percentage of healing of the wound: 96%
[4]; subcutaneous 14 days
  histopathological Grade: III (7-9 Moderately thick granulation tissue. It can vary from being dominated by inflammatory cells to greater presence of fibroblasts and collagen deposition, extensive neovascularization, minimum to moderate epithelial migration.)
  histopathological Score: 7.2

## Bemiparin
[1]; [7]
  percentage of area reduction of day 9 with respect to day 1, Average: 24.39 ± 7.47%
  percentage of area reduction of day 9 with respect to day 1: 16.96% and 13.26% and 19.14% and 19.71%
[1]; [8]
  percentage of area reduction of day 9 with respect to day 1, Average: 27.35 ± 7.25%
  percentage of area reduction of day 9 with respect to day 1: 29.31% and 31.85% and 28.40% and 24.89%
[1]; day 9 with respect to day 0, bemiparin 217 IU
  macroscopic healing process: macroscopically much better than in the case of fondaparinux
[2]; oral 100 mg/kg, 14 days
  reduction of the ulceration area: more or less to the same extent as the control animals
[2]; oral, 14 days
  histopathological Grade: III (7-9 Moderately thick granulation tissue. It can vary from being dominated by inflammatory cells to greater presence of fibroblasts and collagen deposition, extensive neovascularization, minimum to moderate epithelial migration.)
  histopathological Score: 9.0
[2]; oral, compared with fondaparinux
  scab formation: much more pronounced scab process
[3]; oral 100 mg/kg
  evolution of the wound area (FIG. 11): heal much better than those treated with fondaparinux
[3]
  histopathological Grade: IV (10-12 Thick and vascular granulation tissue dominated by fibroblasts and extensive collagen deposition, the epithelium covers the wound partially or completely.)
  histopathological Score: 11.3
[4]; [6]
  percentage of healing of the wound: complete curing
[4]; from day 18, subcutaneous 1000 IU Xa/kg
  percentage of healing of the wound: 98%
[4]; subcutaneous 1000 IU Xa/kg
  day on which the wound closes: 18 days
[4]; subcutaneous 14 days
  histopathological Grade: IV (10-12 Thick and vascular granulation tissue dominated by fibroblasts and extensive collagen deposition, the epithelium covers the wound partially or completely.)
  histopathological Score: 11.5
[4]; subcutaneous, after the fifth day of treatment
  granulation tissue in the wound, macroscopic: a bed covered with granulation tissue
